Data on 26 compounds can be found in patent US11230526B1, “Cylcoalkenyl derivatives useful as agonists of the GPR120 and/or GPR40 receptors” (Janssen Pharmaceutica NV, priority 2018, dated 2022).

Assay [1] addresses T1, Human GPR120 short form (Homo sapiens, UniProt Q5NUL3).
T1 construct: expressed in transfected cells
T1 sequence (Q5NUL3 1-361): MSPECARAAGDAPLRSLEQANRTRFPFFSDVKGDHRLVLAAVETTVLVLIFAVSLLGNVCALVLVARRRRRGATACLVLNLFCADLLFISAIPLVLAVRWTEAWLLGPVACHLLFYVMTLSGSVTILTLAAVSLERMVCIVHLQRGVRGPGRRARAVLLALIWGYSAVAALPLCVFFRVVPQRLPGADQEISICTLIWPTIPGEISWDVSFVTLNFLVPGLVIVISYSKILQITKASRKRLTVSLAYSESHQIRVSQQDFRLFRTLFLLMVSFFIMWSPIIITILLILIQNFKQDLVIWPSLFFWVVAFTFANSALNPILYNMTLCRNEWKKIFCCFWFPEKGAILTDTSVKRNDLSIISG
Nature of the assay: Human GPR120 calcium flux assay, Procedure Calcium B (4200 cells/well). The assay is classed as cell-based. The protocol: Human GPR120 in Calcium Flux Assay
These cells are first loaded with the Ca^+2 sensitive dye, Fluo-4 NW. Upon stimulation, intracellular released Ca^+2 can bind to the dye and alter its fluorescence intensity. This increase in fluorescence signal, and thus the flux in intracellular [Ca^2+], is detected and quantitated by fluorescence imaging using a FLIPR reader. The effect of the agonist is measured as a function of concentration and used to calculate an EC50 based upon a response curve.
In this procedure 4200 cells/well were employed.
A Human GPR120 clone (Genbank accession number NM_001195755.1) was placed into the pcDNA3.1 mammalian expression vector carrying the neomycin resistance gene. A stable mammalian cell was generated by placing the above clone into a HEK293 background. […] Cells were split 2 times a week to keep the cells in the log-phase growth. […]
The assay was performed on a FLIPR plate reader using the following parameters. Baseline was read for 10 seconds at 1 sec intervals. The program was set to transfer 10 μL of ligand from compound plate to cell plate after baseline reading. Aspiration was executed at: 10 μL/sec speed, 4.6 μL height, Dispensing was executed at: 30 μL/sec speed, 45 μL height. After compound addition, each well was read for 300 sec, with measurements collected at 1 sec intervals.
The kinetic data from the FLIPR was based upon a 5 minute window for data collection. The fluorescence of each sample well was used for individual calculations of a normalized RFU value, which was defined as maximum response minus the minimum response. The normalized fluorescence reading (RFU) was calculated as follows: RFU=Fmax−Fmin
The Fitting Equation was: Y=Bottom+(Top-Bottom)/(1+10^((Log EC50−X)*HillSlope)), where X is the log of the concentration and Y is the response.

The target of assay [2] is T2, human GPR40 (Homo sapiens, UniProt O14842).
T2 construct: expressed in transfected cells
The assay is described as follows: GPR40 calcium flux assay, human GPR40. The note with it: HEK293 cells stably expressing GPR40; table does not say human or rat. The assay is classed as cell-based. The protocol:
Compounds were tested in a calcium flux assay using transfected HEK293 cells stably expressing either human GPR40 or rat GPR40. Human GPR40 expressing cells were cultured in DMEM−High Glucose media supplemented with 10% fetal bovine serum, 1×L-Glutamine, 1×Penicillin/Streptomycin and 500 μg/mL G418. Rat GPR40 expressing cells were cultured in DMEM−High Glucose media supplemented with 10% fetal bovine serum and 1 μg/mL puromycin. Cells were plated into poly-D-lysine coated 384-well plates and cultured overnight in a 37° C. humidified tissue culture incubator under 5% CO2/[…] atmosphere.
On the day of the experiment, the culture media was replaced with assay buffer (HBSS, 20 mM HEPES, 0.1% BSA) and the cells incubated at 37° C. for 1 h. Calcium-sensitive fluorescent dye (Fluo 8 No-Wash Calcium Dye, ABD Bioquest) was then added and the cells incubated for another 30 min at 37° C. followed by 15 min at room temperature while protected from the light. The cell plate and a plate of diluted compounds of Formula (I) were loaded into a fluorescent plate reader that added compounds onto the cells while measuring the fluorescence intensity of each well. The plate reader recorded fluorescence intensity at 1 second intervals for 8 min and provided the data for analysis in an Excel format. EC50 values were calculated using Prism (GraphPad) software.

T2 sequence (O14842 whole entry): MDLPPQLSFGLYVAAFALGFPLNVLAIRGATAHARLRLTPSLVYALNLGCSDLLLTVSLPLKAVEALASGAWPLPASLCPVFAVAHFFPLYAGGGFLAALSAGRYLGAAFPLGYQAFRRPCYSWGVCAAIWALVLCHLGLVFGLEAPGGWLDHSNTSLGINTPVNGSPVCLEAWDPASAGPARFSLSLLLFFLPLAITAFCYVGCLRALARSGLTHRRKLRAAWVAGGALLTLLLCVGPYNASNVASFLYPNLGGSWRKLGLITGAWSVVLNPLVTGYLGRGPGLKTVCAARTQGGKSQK

Regarding `Cc1ccc(C2=C(COc3ccc(CCC(=O)O)c(Cl)c3)CCC2)c(C)c1` [Compound 246, 3-[2-chloro-4-[[2-(2,4-dimethylphenyl)cyclopenten-1-yl]methoxy]phenyl]Propanoic Acid], the results for the EC50 in assay [1] and in assay [2] were 3130 nM and 358 nM, respectively.
With `Cc1ccc(C2=C(COc3ccc(CCC(=O)O)c(C(F)(F)F)c3)CCC2)c(C)c1` [Compound 247, 3-[4-[[2-(2,4-dimethylphenyl)cyclopenten-1-yl]methoxy]-2-(trifluoromethyl)phenyl]Propanoic Acid], the figures for the EC50 in assay [1] and in assay [2] were 3060 nM and 388 nM, respectively.
With `O=C(O)CCc1ccc(OCC2=C(c3ccc(Cl)cc3)CC(F)(F)C2)cc1C(F)(F)F` [Compound 248, 3-[4-[[2-(4-chlorophenyl)-4,4-difluoro-cyclopenten-1-yl]methoxy]-2-(trifluoromethyl)phenyl]Propanoic Acid], the EC50 in assay [1] is 361 nM; in assay [2], 188 nM.
As for `Cc1ccc(C2=C(COc3ccc(CCC(=O)O)c(C(F)(F)F)c3)CC(F)(F)C2)cc1` [Compound 249, 3-[4-[[4,4-difluoro-2-(p-tolyl)cyclopenten-1-yl]methoxy]-2-(trifluoromethyl)phenyl]Propanoic Acid], the EC50 in assay [1] was determined as 173 nM; in assay [2] it was 463 nM.
For `Cc1ccc(C2=C(COc3ccc(CCC(=O)O)c(Cl)c3)CC(F)(F)C2)cc1` [Compound 250, 3-[2-chloro-4-[[4,4-difluoro-2-(p-tolyl)cyclopenten-1-yl]methoxy]phenyl]Propanoic Acid] the same measures were 76 nM and 1480 nM.
In the same order, the values of `O=C(O)CCc1ccc(OCC2=C(c3ccc(Cl)cc3)CC(F)(F)C2)cc1Cl` [Compound 251, 3-[2-chloro-4-[[2-(4-chlorophenyl)-4,4-difluoro-cyclopenten-1-yl]methoxy]phenyl]Propanoic Acid] are 195 nM and 579 nM.
For `Cc1c(CCC(=O)O)cc(F)c(OCC2=C(c3ccc(F)cc3)CCC2)c1C` [Compound 254, 3-[5-fluoro-4-[[2-(4-fluorophenyl)cyclopenten-1-yl]methoxy]-2,3-dimethyl-phenyl]Propanoic Acid], the EC50 in assay [1] is 594 nM; in assay [2], above 5000 nM.
Consider `COc1cc(C)ccc1C1=C(COc2ccc(CCC(=O)O)cc2)CCC1` [Compound 255], for which the EC50 in assay [1] is above 5000 nM; in assay [2], 1300 nM.
Turning to `Cc1ccccc1C1=C(COc2ccc(CCC(=O)O)c(C(F)(F)F)c2)CCC1` [Compound 257, 3-[4-[[2-(o-tolyl)cyclopenten-1-yl]methoxy]-2-(trifluoromethyl)phenyl]Propanoic Acid], the EC50 in assay [1] came to 2640 nM; in assay [2], 337 nM.
In the case of `O=C(O)CCc1ccc(OCC2=C(c3ccccc3)CCC2)cc1C(F)(F)F` [Compound 258, 3-[4-[(2-phenylcyclopenten-1-yl)methoxy]-2-(trifluoromethyl)phenyl]Propanoic Acid], the EC50 in assay [1] turned out to be 614 nM; in assay [2], 481 nM.
Take `O=C(O)CCc1ccc(OCC2=C(c3ccccc3)CCC2)cc1Cl` [Compound 259, 3-[2-chloro-4-[(2-phenylcyclopenten-1-yl)methoxy]phenyl]Propanoic Acid]: the EC50 in assay [1] is 1220 nM; in assay [2], 1570 nM.
`O=C(O)CCc1ccc(OCC2=C(c3ccc(F)cc3)CCC2)cc1Cl` [Compound 260, 3-[2-chloro-4-[[2-(4-fluorophenyl)cyclopenten-1-yl]methoxy]phenyl]Propanoic Acid]: the EC50 came out at 541 nM in assay [1] and 488 nM in assay [2].
Turning to `COc1cc(C2=C(COc3ccc(CCC(=O)O)cc3)CCC2)ccc1C` [Compound 261], the EC50 in assay [1] stood at 1540 nM; in assay [2], 1620 nM.
Consider `Cc1cc(OCC2=C(c3ccccc3C)CCC2)c(F)cc1CCC(=O)O` [Compound 262, 3-[5-fluoro-2-methyl-4-[[2-(o-tolyl)cyclopenten-1-yl]methoxy]phenyl]Propanoic Acid], for which the results for the EC50 in assay [1] and in assay [2] were above 5000 nM and 1290 nM, respectively.
For `O=C(O)CCc1ccc(OCC2=C(c3cccc(F)c3)CCC2)cc1C(F)(F)F` [Compound 263, 3-[4-[[2-(3-fluorophenyl)cyclopenten-1-yl]methoxy]-2-(trifluoromethyl)phenyl]Propanoic Acid], the EC50 turned out to be 262 nM in assay [1] and 134 nM in assay [2].
Turning to `Cc1ccc(C2=C(COc3cc(C)c(CCC(=O)O)cc3F)CCC2)cc1F` [Compound 264, 3-[5-fluoro-4-[[2-(3-fluoro-4-methyl-phenyl)cyclopenten-1-yl]methoxy]-2-methyl-phenyl]Propanoic Acid], the EC50 was 103 nM in assay [1] and 1590 nM in assay [2].
`Cc1cc(OCC2=C(c3ccccc3Cl)CCC2)c(F)cc1CCC(=O)O` [Compound 265, 3-[4-[[2-(2-chlorophenyl)cyclopenten-1-yl]methoxy]-5-fluoro-2-methyl-phenyl]Propanoic Acid]: the figures for the EC50 in assay [1] and in assay [2] were 1210 nM and 1140 nM, respectively.
As to `[2H]C([2H])([2H])c1ccc(C2=C(COc3ccc(CCC(=O)O)c(C(F)(F)F)c3)CCC2)cc1` [Compound 268-D, 3-[4-[[2-[4-(trideuteriomethyl)phenyl]cyclopenten-1-yl]methoxy]-2-(trifluoromethyl)phenyl]Propanoic Acid], the values for the EC50 in assay [1] and in assay [2] were 685 nM and 992 nM, respectively.
Regarding `O=C(O)CCc1ccc(OCC2=C(c3ccc(Br)cc3)CCC2)cc1C(F)(F)F` [Compound 269, 3-[4-[[2-(4-bromophenyl)cyclopenten-1-yl]methoxy]-2-(trifluoromethyl)phenyl]Propanoic Acid], the values for the EC50 in assay [1] and in assay [2] were 2240 nM and 604 nM, respectively.
For `Cc1ccc(C2=C(COc3cc(C)c(CCC(=O)O)cc3F)CCC2)c(F)c1` [Compound 270, 3-[5-fluoro-4-[[2-(2-fluoro-4-methyl-phenyl)cyclopenten-1-yl]methoxy]-2-methyl-phenyl]Propanoic Acid], the results for the EC50 in assay [1] and in assay [2] were 189 nM and 1500 nM, respectively.
Consider `O=C(O)CCc1ccc(OCC2=C(c3ccc(C(F)(F)F)cc3)CCC2)cc1Cl` [Compound 272, 3-[2-chloro-4-[[2-[4-(trifluoromethyl)phenyl]cyclopenten-1-yl]methoxy]phenyl]Propanoic Acid], for which the EC50 came out at 2240 nM in assay [1] and 265 nM in assay [2].
In the same order, the values of `Cc1ccc(C2=C(COc3ccc(CCC(=O)O)c(Cl)c3)CCC2)c(F)c1` [Compound 273, 3-[2-chloro-4-[[2-(2-fluoro-4-methyl-phenyl)cyclopenten-1-yl]methoxy]phenyl]Propanoic Acid] are 213 nM and 1040 nM.
For `O=C(O)CCc1ccc(OCC2=C(c3ccc(Cl)c(F)c3)CCC2)cc1Cl` [Compound 274, 3-[2-chloro-4-[[2-(4-chloro-3-fluoro-phenyl)cyclopenten-1-yl]methoxy]phenyl]Propanoic Acid] the same measures were 518 nM and 215 nM.
For the compound `O=C(O)CCc1ccc(OCC2=C(c3ccc(Cl)cc3F)CCC2)cc1Cl` [Compound 275], the EC50 in assay [1] stood at 307 nM; in assay [2], 286 nM.
As to `O=C(O)CCc1ccc(OCC2=C(c3ccc(Br)cc3)CCC2)cc1Cl` [Compound 276, 3-[4-[[2-(4-bromophenyl)cyclopenten-1-yl]methoxy]-2-chloro-phenyl]Propanoic Acid], the results for the EC50 in assay [1] and in assay [2] were 427 nM and 193 nM, respectively.
With `Cc1cc(OCC2=C(c3ccccc3)CCC2)c(F)cc1CCC(=O)O` [Compound 277, 3-[5-fluoro-2-methyl-4-[(2-phenylcyclopenten-1-yl)methoxy]phenyl]Propanoic Acid], the EC50 in assay [1] stood at 799 nM; in assay [2], 2680 nM.
